Reference: patent US9096591B2, “Tetracyclic compounds” (Medivation Technologies, Inc., priority 2007, dated 2015)

Experiments:
[1] = molecular target: T1, human recombinant histamine H2 receptor (Homo sapiens, UniProt P25021); test: Histamine H2 radioligand binding ([125I]Aminopotentidine); conditions: percent inhibition of specific binding; screened at 1 μM; read-out: Inhibition of ligand binding, Hist. H2
T1 construct: expressed in transfected cells; host or cells: CHO-K1 cells
Summary of the method: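 Test compounds were assessed for their ability to displace radioligand from the human recombinant histamine H2 receptor. Non-specific binding was determined in the presence of 3 μM Tiotidine, and results were expressed as percent inhibition of specific binding, with 1% DMSO serving as the vehicle.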

[2] = system: adrenergic receptors α1D, α2A, α2B; serotonin receptor 5-HT6; dopamine receptor D2L; test: Classification of compounds (Type 1-4) from receptor binding and neurite outgrowth
[3] = molecular target: T2, human recombinant adrenergic α2B receptor (Homo sapiens, UniProt P18089); test: Adrenergic α2B radioligand binding ([3H]Rauwolscine); design: Inhibition of ligand binding, Adren. alpha2B: concentration or dose not given beside the values; conditions: percent inhibition of specific binding
T2 construct: expressed in transfected cells; host or cells: CHO-K1 cells
T2 sequence (P18089 1-450): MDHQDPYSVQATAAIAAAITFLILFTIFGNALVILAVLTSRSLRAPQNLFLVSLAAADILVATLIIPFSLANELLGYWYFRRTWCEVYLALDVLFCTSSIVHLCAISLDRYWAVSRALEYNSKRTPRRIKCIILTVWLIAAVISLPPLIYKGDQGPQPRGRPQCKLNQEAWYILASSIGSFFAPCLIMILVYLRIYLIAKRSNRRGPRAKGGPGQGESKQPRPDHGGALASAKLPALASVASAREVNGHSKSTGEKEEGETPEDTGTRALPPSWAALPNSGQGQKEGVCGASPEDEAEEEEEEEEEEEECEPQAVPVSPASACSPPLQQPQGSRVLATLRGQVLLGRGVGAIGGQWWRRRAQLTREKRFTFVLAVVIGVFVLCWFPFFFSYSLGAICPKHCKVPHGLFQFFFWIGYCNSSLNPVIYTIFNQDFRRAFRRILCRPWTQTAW
Summary of the method: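 Membranes from CHO-K1 cells expressing the receptor, in 50 mM Tris-HCl pH 7.4 with 12.5 mM MgCl2, 1 mM EDTA, 0.2% BSA, incubated with compounds and 2.5 nM [3H]Rauwolscine for 60 minutes at 25 °C.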

[4] = molecular target: T3, Serotonin (5-Hydroxytryptamine) 5-HT7 (Homo sapiens, UniProt P34969); test: Serotonin 5-HT7 radioligand binding ([3H]LSD); design: Inhibition of ligand binding, Ser. 5-HT7: concentration or dose not given beside the values; conditions: percent inhibition of specific binding
T3 construct: expressed in transfected cells; host or cells: CHO cells
T3 sequence (P34969 whole entry): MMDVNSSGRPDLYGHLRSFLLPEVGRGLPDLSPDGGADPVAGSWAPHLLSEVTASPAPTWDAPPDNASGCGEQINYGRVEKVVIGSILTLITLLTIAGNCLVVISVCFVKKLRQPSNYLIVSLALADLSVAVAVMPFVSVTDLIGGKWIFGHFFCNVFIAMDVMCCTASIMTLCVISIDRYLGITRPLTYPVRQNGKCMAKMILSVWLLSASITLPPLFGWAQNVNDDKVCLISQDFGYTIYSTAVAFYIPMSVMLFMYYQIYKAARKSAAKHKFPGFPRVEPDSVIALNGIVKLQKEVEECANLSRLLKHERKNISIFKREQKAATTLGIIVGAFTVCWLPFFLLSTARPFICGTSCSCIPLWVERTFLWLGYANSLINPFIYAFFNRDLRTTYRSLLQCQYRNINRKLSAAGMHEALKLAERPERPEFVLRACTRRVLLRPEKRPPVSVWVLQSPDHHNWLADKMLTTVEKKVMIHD
Protocol: Lysergic acid diethylamide (LSD) for 2 hours at 25° C. […] Receptor proteins were filtered and washed, the filters were then counted to determine [^3H]LSD specifically bound. […] Biochemical assay results are presented as the percent inhibition of specific binding in Table 6.

[5] = molecular target: T4, human recombinant serotonin (5-Hydroxytryptamine) 5-HT2C receptor (Homo sapiens, UniProt P28335); test: Serotonin 5-HT2C radioligand binding ([3H]Mesulergine); design: Inhibition of ligand binding, Ser. 5-HT2C: concentration or dose not given beside the values; conditions: percent inhibition of specific binding
T4 construct: expressed in transfected cells; host or cells: CHO-K1 cells
T4 sequence (P28335 33-458): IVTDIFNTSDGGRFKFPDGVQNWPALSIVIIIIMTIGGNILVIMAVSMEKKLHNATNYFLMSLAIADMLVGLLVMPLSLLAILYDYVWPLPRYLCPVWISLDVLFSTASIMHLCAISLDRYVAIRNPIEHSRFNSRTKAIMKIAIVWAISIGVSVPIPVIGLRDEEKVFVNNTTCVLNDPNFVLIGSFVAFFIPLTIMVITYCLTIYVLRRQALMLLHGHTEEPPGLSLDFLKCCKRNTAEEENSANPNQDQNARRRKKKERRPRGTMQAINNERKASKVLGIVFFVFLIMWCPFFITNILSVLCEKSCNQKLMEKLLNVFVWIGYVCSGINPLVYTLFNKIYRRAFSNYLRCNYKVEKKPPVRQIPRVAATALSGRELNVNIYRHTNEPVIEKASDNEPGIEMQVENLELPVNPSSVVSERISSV
Protocol: Compounds of the invention were incubated with 1 nM [^3H]Mesulergine for 60 minutes at 25° C. Non-specific binding was estimated in the presence of 1 μM Mianserin. Receptor proteins were filtered and washed, the filters were then counted to determine [^3H]Mesulergine specifically bound. […] Biochemical assay results are presented as the percent inhibition of specific binding in Table 6.

[6] = molecular target: T5, human recombinant dopamine D2L receptor (Homo sapiens, UniProt P14416); test: Dopamine D2L radioligand binding ([3H]Spiperone); conditions: percent inhibition of specific binding
T5 construct: expressed in transfected cells; host or cells: CHO cells
T5 sequence (P14416 whole entry): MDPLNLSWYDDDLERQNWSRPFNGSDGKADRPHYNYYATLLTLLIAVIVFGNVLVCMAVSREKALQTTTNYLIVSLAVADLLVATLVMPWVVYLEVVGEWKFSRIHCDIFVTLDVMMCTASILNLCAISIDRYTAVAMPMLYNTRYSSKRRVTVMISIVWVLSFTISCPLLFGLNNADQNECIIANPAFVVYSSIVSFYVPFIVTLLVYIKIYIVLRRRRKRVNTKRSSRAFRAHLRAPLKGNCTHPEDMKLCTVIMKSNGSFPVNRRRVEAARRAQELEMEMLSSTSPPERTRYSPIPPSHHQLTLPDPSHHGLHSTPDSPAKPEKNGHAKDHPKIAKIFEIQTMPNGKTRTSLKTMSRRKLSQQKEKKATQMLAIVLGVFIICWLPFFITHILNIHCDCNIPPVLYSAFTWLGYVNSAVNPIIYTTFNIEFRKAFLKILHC
Protocol: Non-specific binding was estimated in the presence of 10 μM Haloperidol. Receptor proteins were filtered and washed, the filters were then counted to determine [^3H]Spiperone specifically bound. […] Biochemical assay results are presented as the percent inhibition of specific binding in Table 6.

T1 sequence (P25021 whole entry): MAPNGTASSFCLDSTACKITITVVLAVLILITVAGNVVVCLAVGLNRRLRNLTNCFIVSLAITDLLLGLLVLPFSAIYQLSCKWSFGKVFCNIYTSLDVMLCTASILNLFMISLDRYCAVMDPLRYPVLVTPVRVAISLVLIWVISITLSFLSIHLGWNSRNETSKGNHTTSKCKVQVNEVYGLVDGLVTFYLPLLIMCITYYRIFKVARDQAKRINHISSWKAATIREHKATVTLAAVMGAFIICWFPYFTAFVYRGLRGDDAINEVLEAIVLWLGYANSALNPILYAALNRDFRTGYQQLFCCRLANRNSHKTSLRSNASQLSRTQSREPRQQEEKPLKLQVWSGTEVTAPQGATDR

Row | Structure (SMILES) | inhibition at 1 µM [1] | compound type (classification by receptor binding profile and neurite outgrowth) [2] | Inhibition of ligand binding, Adren. alpha2B [3] | Inhibition of ligand binding, Ser. 5-HT7 [4] | Inhibition of ligand binding, Ser. 5-HT2C [5] | Inhibition of ligand binding, Dop. D2L [6]
1 | Cc1ccc(CCn2c3c(c4cc(Cl)ccc42)CN(C)CC3)cc1 [Compound 43] | 100% | Type one | 108% | 92% | 100% | 
2 | CN1CCc2c(c3cc(Cl)ccc3n2CCc2ccc(Cl)cc2)C1 [Compound 45, 5-(4-chlorophenethyl)-8-chloro-2,3,4,5-tetrahydro-2-methyl-1H-pyrido[4,3-b]indole] | 98% | Type one | 102% | 99% | 97% | 
3 | Cc1ccc(CCn2c3c(c4cc(C(F)(F)F)ccc42)CN(C)CC3)cc1 [Compound 47] | 78% | Type one | 101% | 92% | 89% | 
4 | CN1CCc2c(c3cc(Cl)ccc3n2CCc2ccncc2)C1 [Compound 56] | 76% | Type one | 119% | 91% | 87% | 62%
5 | Cc1ccc2c(c1)c1c(n2CCc2ccc(C(F)(F)F)nc2)CCN(C)C1 [Compound 68] | 49% | Type one | 111% | 103% | 78% | 29%
6 | CN1CCc2c(c3cccc(Cl)c3n2CCc2ccccc2)C1 [Compound 83] | 97% | Type one | 96% | 95% | 99% | 
7 | CN1CCc2c(c3cc(Cl)ccc3n2CCc2ccc(F)cc2)C1 [Compound 162, 5-(4-fluorophenethyl)-8-chloro-2,3,4,5-tetrahydro-2-methyl-1H-pyrido[4,3-b]indole] | 94% | Type one | 112% | 94% | 94% | 
8 | Cc1ccc2c(c1)c1c(n2CCc2ccc(C(C)C)nc2)CCN(C)C1 [Compound 360, 5-[2-(6-Isopropyl-pyridin-3-yl)-ethyl]-2,8-dimethyl-2,3,4,5-tetrahydro-1H-pyrido[4,3-b]indole] | 75% | Type one | 115% | 91% | 83% | 37%
9 | CC(C)c1ccc(CCn2c3c(c4cc(Cl)ccc42)CN(C)CC3)cn1 [Compound 372, 8-Chloro-5-[2-(6-isopropyl-pyridin-3-yl)-ethyl]-2-methyl-2,3,4,5-tetrahydro-1H-pyrido[4,3-b]indole] | 82% | Type one | 110% | 94% | 77% | 44%
10 | Cc1ccc2c(c1)c1c(n2CCc2cncc(Cl)c2)CCN(C)C1 [Compound 443, 5-(2-(5-chloropyridin-3-yl)ethyl)-2,3,4,5-tetrahydro-2,8-dimethyl-1H-pyrido[4,3-b]indole] | 94% | Type one | 117% |  | 95% | 29%
11 | CN1CCc2c(c3cc(Cl)ccc3n2CCc2cncc(Cl)c2)C1 [Compound 444, 8-chloro-5-(2-(5-chloropyridin-3-yl)ethyl)-2,3,4,5-tetrahydro-2-methyl-1H-pyrido[4,3-b]indole] | 80% | Type one | 113% |  | 95% | 32%
12 | CCCc1ccc(CCn2c3c(c4cc(C)ccc42)CN(C)CC3)cn1 [Compound 452, 2,8-Dimethyl-5-[2-(6-propyl-pyridin-3-yl)-ethyl]-2,3,4,5-tetrahydro-1H-pyrido[4,3-b]indole] | 92% | Type one | 104% | 96% | 93% | 52%
13 | Cc1ccc2c(c1)c1c(n2CC(C)c2ccc(F)cc2)CCN(C)C1 (stereo not drawn) [Compound 456, 5-(2-(4-fluorophenyl)propyl)-2,3,4,5-tetrahydro-2,8-dimethyl-1H-pyrido[4,3-b]indole] | 98% | Type one | 110% |  | 99% | 76%
14 | CCCc1ccc(CCn2c3c(c4cc(Cl)ccc42)CN(C)CC3)cn1 [Compound 476, 8-chloro-2,3,4,5-tetrahydro-2-methyl-5-(2-(6-propylpyridin-3-yl)ethyl)-1H-pyrido[4,3-b]indole] | 96% | Type one | 97% |  | 96% | 30%
